Measured values: patent publication US9096591B2, “Tetracyclic compounds” (Medivation Technologies, Inc., priority 2007, dated 2015)
Where two headings read alike, the source gives them in different places.

Columns and labels:
[1] = target: T1, Serotonin (5-Hydroxytryptamine) 5-HT7 (Homo sapiens, UniProt P34969); assay: Serotonin 5-HT7 radioligand binding ([3H]LSD); design: Inhibition of ligand binding, Ser. 5-HT7: concentration or dose not given beside the values; details: percent inhibition of specific binding
T1 construct: expressed in transfected cells; host or cells: CHO cells
Description: Lysergic acid diethylamide (LSD) for 2 hours at 25° C. […] Receptor proteins were filtered and washed, the filters were then counted to determine [^3H]LSD specifically bound. […] Biochemical assay results are presented as the percent inhibition of specific binding in Table 6.

[2] = target: T2, human recombinant dopamine D2L receptor (Homo sapiens, UniProt P14416); assay: Dopamine D2L radioligand binding ([3H]Spiperone); details: percent inhibition of specific binding
T2 construct: expressed in transfected cells; host or cells: CHO cells
Description: Non-specific binding was estimated in the presence of 10 μM Haloperidol. Receptor proteins were filtered and washed, the filters were then counted to determine [^3H]Spiperone specifically bound. […] Biochemical assay results are presented as the percent inhibition of specific binding in Table 6.

[3] = target: T3, human recombinant serotonin (5-Hydroxytryptamine) 5-HT6 receptor (Homo sapiens, UniProt P50406); assay: Serotonin 5-HT6 radioligand binding ([3H]LSD); design: Inhibition of ligand binding, Ser. 5-HT6: concentration or dose not given beside the values; details: percent inhibition of specific binding
T3 construct: expressed in transfected cells; host or cells: human HeLa cells
From the text: Receptor proteins were filtered and washed, the filters were then counted to determine [3H]LSD specifically bound. […] Biochemical assay results are presented as the percent inhibition of specific binding in Table 6.

[4] = target: T4, human recombinant histamine H1 receptor (Homo sapiens, UniProt P35367); assay: Histamine H1 radioligand binding ([3H]Pyrilamine)
T4 construct: expressed in transfected cells; host or cells: CHO cells
Summary of the method: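 CHO-expressed receptor in modified Tris-HCl buffer (50 mM, pH 7.4; 2 mM MgCl2, 100 mM NaCl, 250 mM sucrose); bound ligand measured after filtration and washing.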

[5] = target: T5, human recombinant adrenergic α2A receptor (Homo sapiens, UniProt P08913); assay: Adrenergic α2A radioligand binding ([3H]MK-912); design: Inhibition of ligand binding, Adren. alpha2A: concentration or dose not given beside the values; details: percent inhibition of specific binding
T5 construct: expressed in transfected cells; host or cells: insect Sf9 cells
T5 sequence (P08913 1-465): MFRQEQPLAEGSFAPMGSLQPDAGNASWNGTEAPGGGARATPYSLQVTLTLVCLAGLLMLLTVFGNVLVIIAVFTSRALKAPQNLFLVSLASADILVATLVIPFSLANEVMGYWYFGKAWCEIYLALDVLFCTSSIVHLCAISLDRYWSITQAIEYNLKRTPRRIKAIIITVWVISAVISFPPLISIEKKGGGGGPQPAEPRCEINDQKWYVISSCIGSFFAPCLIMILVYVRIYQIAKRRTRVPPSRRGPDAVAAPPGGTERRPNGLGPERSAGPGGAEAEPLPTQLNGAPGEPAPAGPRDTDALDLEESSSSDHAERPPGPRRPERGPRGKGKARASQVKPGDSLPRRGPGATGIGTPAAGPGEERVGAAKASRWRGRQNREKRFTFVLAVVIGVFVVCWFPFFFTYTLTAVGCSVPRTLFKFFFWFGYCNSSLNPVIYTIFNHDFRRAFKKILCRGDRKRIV
Summary of the method: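 Membranes from Sf9 cells expressing the receptor were incubated with 1 nM [3H]MK-912 for 60 minutes at 25° C in 50 mM Tris-HCl pH 7.4, 12.5 mM MgCl2, 2 mM EDTA. 10 μM WB-4101 defined non-specific binding. Values are percent inhibition of specific bound radioactivity after filtration.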

[6] = tested on: adrenergic receptors α1D, α2A, α2B; serotonin receptor 5-HT6; dopamine receptor D2L; assay: Classification of compounds (Type 1-4) from receptor binding and neurite outgrowth
From the text: Compounds of the invention that inhibit binding of a ligand to adrenergic receptors α1D, α2A, α2B and serotonin receptor 5-HT6 by at least about 80% as determined in a suitable assay such as the assays described herein can be classified as Type 1 compounds. […] In one variation, binding of a ligand to serotonin receptor 5-HT7 is at least about 80%. […] Weak inhibition of binding of a ligand to the histamine H1 receptor is permitted as agonists of this receptor have been implicated in stimulating memory as well as weight gain. In one variation, binding to histamine receptor H1 is inhibited by less than about 80%. […] Compounds that inhibit binding of a ligand to the dopamine D2L receptor by at least about 80% as determined in a suitable assay such as the assay described herein can be classified as Type 2 compounds.
In one variation, Type 1 compounds further inhibit binding of a ligand to dopamine receptor D2L by less than about 80% as determined in a suitable assay known in the art such as the assay described herein. […] In one variation, binding of a ligand to serotonin receptor 5-HT7, 5-HT2A and/or 5-HT2C is inhibited by at least about 80% as determined in a suitable assay such as the assays described herein. […] In one variation, binding of a ligand to histamine receptor H1 and/or H2 is inhibited by less than about 80% as determined by a suitable assay known in the art such as the assays described herein.
In one variation, biding to serotonin receptor 5-HT2A is inhibited by at least about 80% as determined in a suitable assay know in the art such as the assay described herein.

[7] = percent inhibition of specific binding, screened at 1 μM, read-out: Inhibition of ligand binding, Hist. H1
[8] = read-out: Histamine Binding H1, percent inhibition of specific binding
[9] = read-out: Inhibition of ligand binding, Hist. H1

T2 sequence (P14416 whole entry): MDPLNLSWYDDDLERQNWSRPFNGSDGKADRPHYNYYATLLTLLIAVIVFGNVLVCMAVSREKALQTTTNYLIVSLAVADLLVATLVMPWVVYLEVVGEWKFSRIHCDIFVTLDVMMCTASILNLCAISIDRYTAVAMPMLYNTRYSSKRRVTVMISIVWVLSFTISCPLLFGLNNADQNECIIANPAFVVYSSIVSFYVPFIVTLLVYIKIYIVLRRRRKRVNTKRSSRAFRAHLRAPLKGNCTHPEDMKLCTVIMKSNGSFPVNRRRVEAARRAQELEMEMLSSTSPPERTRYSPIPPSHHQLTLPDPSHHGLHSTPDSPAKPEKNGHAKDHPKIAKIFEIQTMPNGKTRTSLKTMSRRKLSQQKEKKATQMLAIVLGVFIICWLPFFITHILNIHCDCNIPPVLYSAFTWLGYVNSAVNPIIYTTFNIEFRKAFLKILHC
T4 sequence (P35367 whole entry): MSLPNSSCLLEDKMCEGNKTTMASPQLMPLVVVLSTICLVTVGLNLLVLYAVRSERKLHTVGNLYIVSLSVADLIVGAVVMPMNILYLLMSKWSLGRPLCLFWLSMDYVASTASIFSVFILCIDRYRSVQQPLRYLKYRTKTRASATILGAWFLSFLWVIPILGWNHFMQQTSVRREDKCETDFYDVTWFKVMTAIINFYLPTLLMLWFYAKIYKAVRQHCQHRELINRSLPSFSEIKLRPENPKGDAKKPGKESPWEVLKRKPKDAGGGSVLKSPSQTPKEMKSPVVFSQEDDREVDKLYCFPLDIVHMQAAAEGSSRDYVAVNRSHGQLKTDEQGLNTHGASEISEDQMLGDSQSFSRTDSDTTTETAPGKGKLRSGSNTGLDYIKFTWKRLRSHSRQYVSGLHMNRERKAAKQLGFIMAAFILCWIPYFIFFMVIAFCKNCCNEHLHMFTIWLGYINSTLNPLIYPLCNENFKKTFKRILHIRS
T3 sequence (P50406 whole entry): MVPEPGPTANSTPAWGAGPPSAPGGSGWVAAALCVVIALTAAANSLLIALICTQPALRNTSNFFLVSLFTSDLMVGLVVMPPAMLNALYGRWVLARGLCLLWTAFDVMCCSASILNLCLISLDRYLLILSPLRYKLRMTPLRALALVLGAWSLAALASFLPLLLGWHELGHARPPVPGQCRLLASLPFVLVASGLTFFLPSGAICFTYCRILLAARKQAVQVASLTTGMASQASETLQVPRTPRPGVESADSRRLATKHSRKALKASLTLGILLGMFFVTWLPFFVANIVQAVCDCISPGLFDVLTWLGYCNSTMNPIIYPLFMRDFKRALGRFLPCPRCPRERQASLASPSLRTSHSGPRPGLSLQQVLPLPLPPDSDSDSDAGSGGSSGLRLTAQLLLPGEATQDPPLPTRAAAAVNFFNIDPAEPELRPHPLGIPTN
T1 sequence (P34969 whole entry): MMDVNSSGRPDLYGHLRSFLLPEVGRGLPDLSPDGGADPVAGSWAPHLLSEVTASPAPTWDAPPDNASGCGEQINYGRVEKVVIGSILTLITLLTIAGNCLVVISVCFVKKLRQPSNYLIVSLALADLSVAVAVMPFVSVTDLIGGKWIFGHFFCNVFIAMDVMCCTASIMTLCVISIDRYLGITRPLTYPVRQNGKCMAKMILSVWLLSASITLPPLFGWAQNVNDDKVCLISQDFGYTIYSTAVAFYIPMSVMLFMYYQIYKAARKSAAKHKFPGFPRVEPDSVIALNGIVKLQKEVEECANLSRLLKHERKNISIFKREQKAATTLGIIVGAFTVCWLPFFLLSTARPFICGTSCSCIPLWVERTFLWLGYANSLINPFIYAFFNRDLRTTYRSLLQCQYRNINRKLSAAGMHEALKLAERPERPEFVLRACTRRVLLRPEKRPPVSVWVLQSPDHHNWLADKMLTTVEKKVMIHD

Structure (SMILES)	Inhibition of ligand binding, Ser. 5-HT7 [1]	Inhibition of ligand binding, Dop. D2L [2]	Inhibition of ligand binding, Ser. 5-HT6 [3]	inhibition at 1 µM [4, 7]	Inhibition of ligand binding, Adren. alpha2A [5]	compound type (classification by receptor binding profile and neurite outgrowth) [6]	inhibition at 0.03 µM [4, 8]	inhibition at 0.1 µM [4, 8]	inhibition at 1 µM [4, 8]	inhibition at 1 µM [4, 9]
CN1CCc2c(c3cc(Cl)ccc3n2CCn2cccc2)C1 [Compound 349, 8-Chloro-2-methyl-5-(2-pyrrol-1-yl-ethyl)-2,3,4,5-tetrahydro-1H-pyrido[4,3-b]indole]	100%	86%	101%	111%	96%	–	–	–	–	–
CN1CCc2c(c3cc(F)ccc3n2CCc2ccc(F)cc2)C1 [Compound 253]	87%	96%	105%	97%	93%	–	–	–	–	–
Cc1ccc2c(c1)c1c(n2CC(=O)N2CCCCC2)CCN(C)C1 [Compound 395, 2-(1,2,3,4-tetrahydro-2,8-dimethylpyrido[4,3-b]indol-5-yl)-1-(piperidin-1-yl)ethanone]	24%	2%	0%	20%	4%	–	–	–	–	–
Cc1ccc(C(O)Cn2c3c(c4cc(C)ccc42)CN(C)CC3)cc1 (racemic) [Compound 28, racemic-2-(1,2,3,4-tetrahydro-2,8-dimethylpyrido[4,3-b]indol-5-yl)-1-p-tolylethanol]	–	–	99%	85%	100%	Type one	–	–	–	–
CN1CCc2c(c3cc(C(F)(F)F)ccc3n2CCc2ccccc2)C1 [Compound 80, 8-(trifluoromethyl)-2,3,4,5-tetrahydro-2-methyl-5-phenethyl-1H-pyrido[4,3-b]indole]	92%	–	101%	89%	98%	–	–	–	–	–
CC(Cn1c2c(c3ccccc31)CN(C)CC2)c1ccc(F)cc1 (stereo not drawn) [Compound 455]	98%	88%	99%	80%	93%	–	–	–	–	–
CN1CCc2c(c3ccccc3n2CCc2ccccc2)C1 [Compound 2, 2,3,4,5-tetrahydro-2-methyl-5-phenethyl-1H-pyrido[4,3-b]indole]	100%	70%	95%	–	94%	–	31%	54%	87%	87%
Cc1ccc2c(c1)c1c(n2CCC(=O)N2CCC(NC(=O)OC(C)(C)C)CC2)CCN(C)C1 [Compound 393, tert-butyl 1-(3-(1,2,3,4-tetrahydro-2,8-dimethylpyrido[4,3-b]indol-5-yl)propanoyl)piperidin-4-ylcarbamate]	8%	–	3%	28%	98%	–	–	–	–	–
CN1CCc2c(c3cc(Cl)ccc3n2CCC2CCCCC2)C1 [Compound 164, 8-chloro-5-(2-cyclohexylethyl)-2,3,4,5-tetrahydro-2-methyl-1H-pyrido[4,3-b]indole]	92%	–	99%	101%	95%	–	–	–	–	–
CN1CCc2c(c3ccc(Cl)cc3n2CCc2ccccc2)C1 [Compound 82]	100%	–	103%	99%	99%	–	–	–	–	–
Cc1ccc2c(c1)c1c(n2CCN2CCCCC2)CCN(C)C1 [Compound 224, 2,3,4,5-tetrahydro-2,8-dimethyl-5-(2-(piperidin-1-yl)ethyl)-1H-pyrido[4,3-b]indole]	61%	–	43%	56%	57%	–	–	–	–	–
CN1CCc2c(c3c(Cl)cccc3n2CCC2CCCCC2)C1 [Compound 187, 9-chloro-5-(2-cyclohexylethyl)-2,3,4,5-tetrahydro-2-methyl-1H-pyrido[4,3-b]indole]	77%	–	53%	64%	90%	–	–	–	–	–
Cc1ccc2c(c1)c1c(n2CCc2ccc(C)nc2)CCN(C)C1=O [Compound 216]	18%	–	−8%	–	15%	–	–	–	6%	6%
Cc1ccc2c(c1)c1c(n2CCc2ccc(C(=O)O)nc2)CCNC1 [Compound 262]	6%	–	−4%	81%	8%	–	–	–	–	–
CN1CCc2c(c3cc(Cl)ccc3n2CCN2CCOCC2)C1 [Compound 186, 8-chloro-2,3,4,5-tetrahydro-2-methyl-5-(2-morpholinoethyl)-1H-pyrido[4,3-b]indole]	57%	–	83%	97%	51%	–	–	–	–	–
Cc1ccc2c(c1)c1c(n2CCc2ccccc2)CC(O)N(C)C1=O (stereo not drawn) [Compound 215, 3,4-dihydro-3-hydroxy-2,8-dimethyl-5-phenethyl-2H-pyrido[4,3-b]indol-1(5H)-one]	10%	–	8%	–	23%	–	–	–	–	-2%
Cc1ccc2c(c1)c1c(n2CCc2ccccc2)CCNC1 [Compound 228, 2,3,4,5-tetrahydro-8-methyl-5-phenethyl-1H-pyrido[4,3-b]indole]	95%	–	89%	81%	87%	–	–	–	–	–
CN1CCc2c(c3ccc(Cl)cc3n2CCC2CCCCC2)C1 [Compound 188, 7-chloro-5-(2-cyclohexylethyl)-2,3,4,5-tetrahydro-2-methyl-1H-pyrido[4,3-b]indole]	41%	–	67%	97%	80%	–	–	–	–	–
